Data as given in US6207399A, “Methods of determining endogenous thrombin potential (ETP) and thrombin substrates for use in said methods” (Hemker; Hendrik Coenraad, priority 1995, dated 2001).
Peptide text beside a SMILES is read from it. * marks the point of attachment. pNA = O=[N+]([O-])c1ccc(N*)cc1

Legend:
Type in all cases: biochemical
thrombin = thrombin (Homo sapiens, UniProt P00734); assay: Kinetic parameters of hydrolysis of the substrates by thrombin in buffer A at 37° C. (Example 4, Table 3); parameters: Pure human α-thrombin; gift of Dr. T. Lindhout (University of Limburg, Maastricht); conditions: buffer A, 37° C.
Procedure, shortened: (§1)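 p-Nitroaniline release followed at 405 nm in buffer A at 37 °C, with at least six substrate levels of 200–2000 μM. Thrombin at 0.5–50 nM, factor Xa at 50 nM; Km and kcat from initial velocities by linear regression on Michaelis-Menten.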

factor Xa = biological target: T1, factor Xa (Homo sapiens, UniProt P00742); assay: Kinetic parameters of hydrolysis of the substrates by factor Xa in buffer A at 37° C. (Example 4, Table 3); parameters: key to Factor Xa kcat: NH: no hydrolysis; conditions: buffer A, 37° C., 50 nM factor Xa
T1 construct: human factor Xa samples; gift of Dr. T. Lindhout (University of Limburg, Maastricht)
Procedure, shortened: as §1

euglobulin thrombin = biological target: T2, euglobulin thrombin (Homo sapiens, UniProt P00734); assay: Decay constants of thrombin in plasma
T2 construct: The euglobulin thrombin fraction was prepared from defibrinated human plasma; from tissue; host or cells: defibrinated human plasma (euglobulin fraction, acid precipitation, method of Josso and Prou-Wartelle)
Protocol: (§2) To this mixture was added 10 μL of a thrombin preparation to achieve a final concentration of 100 nM. At regular time intervals (5-10 s) 10 μL samples were subsampled into 490 μL buffer B which contained 200 μM of S2238 to determine thrombin activity. After 2 min the reaction was stopped by adding 300 μL 1M citric acid. The moment of sampling and stopping were recorded on a personal computer with pushbutton-equipped pipettes. The optical density was then read at 405 nm and the obtained amidolytic activities were used to calculate the decay constants. The obtained decay constant is the sum of the decay constants of the reaction of thrombin with antithrombin III (k1) and α2 -macroglobulin (k2).
as §2, with “Decay constants of thrombin in plasma: To 120 μL defibrinated plasma was added: 50 μL of buffer A which contained the substances to be tested. To” for “To”, “was” for “was then”

T1 sequence (P00742 41-179 limits assumed): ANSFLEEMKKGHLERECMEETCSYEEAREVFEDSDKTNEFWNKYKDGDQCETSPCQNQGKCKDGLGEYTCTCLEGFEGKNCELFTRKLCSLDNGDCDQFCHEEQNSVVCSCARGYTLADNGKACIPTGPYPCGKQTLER
T1 sequence (P00742 235-488 limits assumed): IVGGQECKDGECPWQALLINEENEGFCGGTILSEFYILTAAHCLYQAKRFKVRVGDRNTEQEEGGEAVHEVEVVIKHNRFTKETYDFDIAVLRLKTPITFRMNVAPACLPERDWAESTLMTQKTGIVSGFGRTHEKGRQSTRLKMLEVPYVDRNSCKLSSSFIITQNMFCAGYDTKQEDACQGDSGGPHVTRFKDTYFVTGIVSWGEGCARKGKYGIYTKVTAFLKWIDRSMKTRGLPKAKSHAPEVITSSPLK

SMILES: CC(C)[C@H](N)C(=O)N[C@@H](CCCNC(=N)N)C(=O)Nc1ccc([N+](=O)[O-])cc1.Cl.Cl [2HCl.H-Val-Arg-pNA] (H-Val-Arg-pNA)
- Km (thrombin): 1240 µM
- Thrombin kcat (thrombin): 0.23 s⁻¹
- Thrombin kcat /Km (thrombin): 186 M/s
- Factor Xa kcat (factor Xa): NH
- k1 : AT-III dependent decay of thrombin (euglobulin thrombin; [S] 100 μM in plasma): 2.064 min⁻¹
- k2 : α2 M dependent decay of thrombin (euglobulin thrombin; [S] 100 μM in plasma): 0.253 min⁻¹
- koverall (euglobulin thrombin; [S] 100 μM in plasma): 2.317 min⁻¹
- t1/2 (euglobulin thrombin; [S] 100 μM in plasma): 17.95 s
- (k1,corr) = k1,corr divided by μM AT-III (euglobulin thrombin; [S] 200 μM in plasma): 21430 M⁻¹ s⁻¹
- k1,corr : k1 after correcting for k2,M and 0.170 (euglobulin thrombin; [S] 200 μM in plasma): 1.750 min⁻¹
- k1 : AT-III dependent decay of thrombin (euglobulin thrombin; [S] 200 μM in plasma): 1.751 min⁻¹
- k2 : α2 M dependent decay of thrombin (euglobulin thrombin; [S] 200 μM in plasma): 0.402 min⁻¹
- koverall (euglobulin thrombin; [S] 200 μM in plasma): 2.154 min⁻¹
- t1/2 (euglobulin thrombin; [S] 200 μM in plasma): 19.31 s
- (k1,corr) = k1,corr divided by μM AT-III (euglobulin thrombin; [S] 500 μM in plasma): 18630 M⁻¹ s⁻¹
- k1,corr : k1 after correcting for k2,M and 0.170 (euglobulin thrombin; [S] 500 μM in plasma): 1.521 min⁻¹
- k1 : AT-III dependent decay of thrombin (euglobulin thrombin; [S] 500 μM in plasma): 1.509 min⁻¹
- k2 : α2 M dependent decay of thrombin (euglobulin thrombin; [S] 500 μM in plasma): 0.389 min⁻¹
- koverall (euglobulin thrombin; [S] 500 μM in plasma): 1.898 min⁻¹
- t1/2 (euglobulin thrombin; [S] 500 μM in plasma): 21.91 s
- (k1,corr) = k1,corr divided by μM AT-III (euglobulin thrombin; [S] 1000 μM in plasma): 18500 M⁻¹ s⁻¹
- k1,corr : k1 after correcting for k2,M and 0.170 (euglobulin thrombin; [S] 1000 μM in plasma): 1.510 min⁻¹
- k1 : AT-III dependent decay of thrombin (euglobulin thrombin; [S] 1000 μM in plasma): 1.676 min⁻¹
- k2 : α2 M dependent decay of thrombin (euglobulin thrombin; [S] 1000 μM in plasma): 0.204 min⁻¹
- koverall (euglobulin thrombin; [S] 1000 μM in plasma): 1.879 min⁻¹
- t1/2 (euglobulin thrombin; [S] 1000 μM in plasma): 27.12 s
- k1 : AT-III dependent decay of thrombin (euglobulin thrombin; [S] 1500 μM in plasma): 1.087 min⁻¹
- k2 : α2 M dependent decay of thrombin (euglobulin thrombin; [S] 1500 μM in plasma): 0.130 min⁻¹
- koverall (euglobulin thrombin; [S] 1500 μM in plasma): 1.217 min⁻¹
- t1/2 (euglobulin thrombin; [S] 1500 μM in plasma): 34.17 s
- k1 : AT-III dependent decay of thrombin (euglobulin thrombin; [S] 2000 μM in plasma): 0.877 min⁻¹
- k2 : α2 M dependent decay of thrombin (euglobulin thrombin; [S] 2000 μM in plasma): 0.128 min⁻¹
- koverall (euglobulin thrombin; [S] 2000 μM in plasma): 1.005 min⁻¹
- t1/2 (euglobulin thrombin; [S] 2000 μM in plasma): 41.37 s
